Measured values: patent publication EP0951284B1, “[…] DERIVATIVES” (priority 1996, dated 1998)
Counter-ions that a name gives are not always drawn. Like-named read-outs stand apart in the source and are kept apart here.

Experiments:
[1] = molecular target: T1, Human erythrocyte acetylcholinesterase (Homo sapiens, UniProt P22303); test: In vitro measurement of acetylcholinesterase (AChE) inhibition (Ellman method); type: biochemical; details: at time of peak activity, incubation 15 to 60 minutes at 37°C
T1 construct: Human erythrocyte acetylcholinesterase (type XIII, Sigma Israel); purchased Sigma Israel type XIII; host or cells: human erythrocytes
T1 sequence (P22303 32-617 isoform P22303-2 limits assumed): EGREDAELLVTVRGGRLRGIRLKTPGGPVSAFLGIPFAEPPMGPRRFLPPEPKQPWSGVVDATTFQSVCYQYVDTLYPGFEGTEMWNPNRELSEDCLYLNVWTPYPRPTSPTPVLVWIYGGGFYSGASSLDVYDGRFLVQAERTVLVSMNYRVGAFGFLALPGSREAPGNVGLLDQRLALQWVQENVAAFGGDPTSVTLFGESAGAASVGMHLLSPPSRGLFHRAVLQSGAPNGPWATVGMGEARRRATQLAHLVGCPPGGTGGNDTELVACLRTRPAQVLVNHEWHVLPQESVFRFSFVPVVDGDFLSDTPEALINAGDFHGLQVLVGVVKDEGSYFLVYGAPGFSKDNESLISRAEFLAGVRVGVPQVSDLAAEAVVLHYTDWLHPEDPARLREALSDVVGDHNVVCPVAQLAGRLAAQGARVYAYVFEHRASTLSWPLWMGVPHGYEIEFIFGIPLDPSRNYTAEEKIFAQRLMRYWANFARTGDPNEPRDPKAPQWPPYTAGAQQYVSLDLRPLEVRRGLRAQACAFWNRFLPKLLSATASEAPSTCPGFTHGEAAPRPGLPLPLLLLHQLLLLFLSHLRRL
Experimental: Human erythrocyte acetylcholinesterase (type XIII, Sigma Israel), was prepared in a stock solution of 1U/ml, containing Triton (1%) and bovine serum albumin (0.05%) in phosphate buffer (pH 8). The enzyme (0.05U) was incubated with 3-5 different concentrations of test compound (in triplicate) for periods of from 15 to 60 minutes at 37°C. […] The percentage inhibition of AChE by each concentration of drug is calculated by comparison with that of enzyme in the absence of drug.

[2] = molecular target: T2, whole brain AChE (Mus musculus, UniProt P21836); test: Ex vivo measurement of brain AChE inhibition after sub-cutaneous administration; type: in vivo, mice; details: for ED50: sc, sub-cutaneous, mouse whole brain, at peak of activity, read-out: AChE Inhibition Ex vivo ED50 (AC)
T2 construct: the brains rapidly removed (minus cerebellum), weighed and homogenized in 0.1M phosphate buffer pH 8.0; from tissue; host or cells: mouse brain (minus cerebellum) homogenate supernatant
T2 sequence (P21836 32-614): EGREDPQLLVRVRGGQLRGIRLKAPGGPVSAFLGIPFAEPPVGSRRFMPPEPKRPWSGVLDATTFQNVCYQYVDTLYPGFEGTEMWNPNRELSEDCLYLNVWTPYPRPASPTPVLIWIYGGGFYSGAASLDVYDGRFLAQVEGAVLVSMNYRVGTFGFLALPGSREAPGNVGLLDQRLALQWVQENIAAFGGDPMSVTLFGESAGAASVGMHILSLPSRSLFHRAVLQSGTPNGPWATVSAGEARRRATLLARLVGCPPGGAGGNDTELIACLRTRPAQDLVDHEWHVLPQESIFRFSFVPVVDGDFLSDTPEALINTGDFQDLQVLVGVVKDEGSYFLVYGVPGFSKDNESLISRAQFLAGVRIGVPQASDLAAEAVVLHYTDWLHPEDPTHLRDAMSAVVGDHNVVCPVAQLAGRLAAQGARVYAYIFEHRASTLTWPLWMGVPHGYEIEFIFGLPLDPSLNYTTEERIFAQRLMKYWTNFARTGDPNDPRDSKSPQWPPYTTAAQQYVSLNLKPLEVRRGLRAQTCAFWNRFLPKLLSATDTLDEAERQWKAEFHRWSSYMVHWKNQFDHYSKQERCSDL
Experimental: Test drugs or saline were administered sub-cutaneously to male mice (Sabra strain, 28-35g). At least 4-5 mice were used per dose and a minimum of 3 doses per drug were tested. The mice were sacrificed 15, 30, 60, 70, 90, 120 or 180 minutes after drug administration, the brains rapidly removed (minus cerebellum), weighed and homogenized in 0.1M phosphate buffer pH 8.0, containing Triton (1mg/100g tissue) and centrifuged to remove cell debris. Aliquots (25 µl) of the supernatant were then incubated with acetylthiocholine and DTNB. AChE activity measured as described above. The % inhibition of whole brain AChE by each dose of drug was calculated by comparison with enzyme activity from 3 saline treated control mice run at the same time.

[3] = system: MAO-B; test: Inhibition of MAO activity ex vivo (brain tissue), PEA substrate; type: in vivo, mice; details: mouse brain tissue
Experimental: (§1) Male Sabra mice, weighing 45-50g were injected with test compound solutions (prepared in 0.9% saline). Each dose was administered to two or three mice. The mice were sacrificed two hours after drug administration or at a time corresponding to the peak AChE inhibition time (see Table 6). The brain and liver were rapidly dissected and stored in appropriate vials on ice. The tissues were weighed, diluted to 1/20 in sucrose 0.3M and stored at -20°C before performance of the MAO assay described above. The results given in Table 6 relate to measurements made on brain tissue only.

[4] = system: MAO-A; test: Inhibition of MAO activity ex vivo (brain tissue), 5-HT substrate; type: in vivo, mice; details: mouse brain tissue
Experimental: as §1

[5] = molecular target: T3, MAO-A (Rattus norvegicus, UniProt P21396); test: Inhibition of MAO activity in vitro, rat brain homogenate, 5-HT substrate
T3 sequence (P21396 1-526): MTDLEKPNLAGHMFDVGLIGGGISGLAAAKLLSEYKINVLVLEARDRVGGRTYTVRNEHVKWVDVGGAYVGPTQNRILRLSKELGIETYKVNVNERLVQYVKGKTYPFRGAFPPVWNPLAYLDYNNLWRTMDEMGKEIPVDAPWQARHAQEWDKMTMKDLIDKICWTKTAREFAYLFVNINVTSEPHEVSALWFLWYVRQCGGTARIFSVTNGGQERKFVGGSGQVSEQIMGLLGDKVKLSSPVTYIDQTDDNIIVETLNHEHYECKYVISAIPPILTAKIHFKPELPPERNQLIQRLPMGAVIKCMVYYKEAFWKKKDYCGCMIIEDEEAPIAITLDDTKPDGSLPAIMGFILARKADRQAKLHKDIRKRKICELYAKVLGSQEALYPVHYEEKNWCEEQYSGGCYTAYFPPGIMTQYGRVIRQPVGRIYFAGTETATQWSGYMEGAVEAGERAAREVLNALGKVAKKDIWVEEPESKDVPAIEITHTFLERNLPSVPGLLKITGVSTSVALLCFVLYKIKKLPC
Experimental: (§2) The MAO enzyme source was a homogenate of rat brain in 0.3M sucrose, which was centrifuged at 600G for 15 minutes. The supernatant was diluted appropriately in 0.05M phosphate buffer, and pre-incubated with serial dilutions of test compounds for 20 minutes at 37°C. ^14C-Labeled substrates (2-phenylethylamine, hereinafter PEA; 5-hydroxytryptamine, hereinafter 5-HT) were then added, and the incubation continued for a further 20 minutes (PEA), or 30-45 minutes (5-HT). Substrate concentrations used were 50µM (PEA) and 1mM (5-HT). In the case of PEA, enzyme concentration was chosen so that not more than 10% of the substrate was metabolized during the course of the reaction. The deaminated products were extracted into toluene-ethyl acetate (1:1, v/v) containing 0.6% (w/v) 2,5-diphenyloxazole prior to determination by liquid scintillation counting. Radioactivity in the eluate indicates the production of neutral and acidic metabolites formed as a result of MAO activity. Activity of MAO in the sample was expressed as a percentage of control activity in the absence of inhibitors after subtraction of appropriate blank values The activity determined using PEA as substrate is referred to as MAO-B, and that determined using 5-HT as MAO-A.

[6] = molecular target: T4, MAO-B (Rattus norvegicus, UniProt P19643); test: Inhibition of MAO activity in vitro, rat brain homogenate, PEA substrate; type: biochemical; design: The MAO enzyme source was a homogenate of rat brain in 0.3M sucrose; from tissue; host or cells: rat brain homogenate (600G supernatant); details: PEA 50µM
T4 sequence (P19643 1-520): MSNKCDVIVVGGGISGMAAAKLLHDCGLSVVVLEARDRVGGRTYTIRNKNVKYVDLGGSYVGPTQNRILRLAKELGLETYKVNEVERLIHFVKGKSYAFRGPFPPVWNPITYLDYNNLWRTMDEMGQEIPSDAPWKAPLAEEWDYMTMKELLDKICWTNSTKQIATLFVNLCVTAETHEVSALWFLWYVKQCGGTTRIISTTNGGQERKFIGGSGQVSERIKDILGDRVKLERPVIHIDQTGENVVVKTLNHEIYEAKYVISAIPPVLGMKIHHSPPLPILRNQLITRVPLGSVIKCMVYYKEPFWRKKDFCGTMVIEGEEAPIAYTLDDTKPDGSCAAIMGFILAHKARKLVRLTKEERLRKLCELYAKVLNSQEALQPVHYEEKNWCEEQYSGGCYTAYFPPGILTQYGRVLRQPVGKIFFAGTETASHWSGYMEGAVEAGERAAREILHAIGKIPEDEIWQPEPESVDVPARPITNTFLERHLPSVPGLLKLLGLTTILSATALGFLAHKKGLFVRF
Experimental: as §2

[7] = Acute toxicity in mice (sub-cutaneous, lethality within 6 hours); details: mouse, in vivo, sc; for selectivity ratio: LD50 divided by ED50 (acetylcholine esterase ex vivo), read-out: Therapeutic Ratio (LD/AC); for LD50 at 6 h: sub-cutaneous, mice, within 6 hours
Experimental: Drugs were administered sub-cutaneously in at least 3 doses, to a minimum of 10 mice per dose. […] Therapeutic Ratio was calculated as LD50 divided by ED50(acetylcholine esterase ex vivo).

[8] = read-out: MAO-A Inhibition In vitro IC50, rat brain homogenate, 5-HT 1mM

Row | Structure (SMILES) | IC50 [1] | Time to peak activity t ([2]; AChE inhibition) | ED50 [2] | MAO-B Inhibition Ex vivo ED50 [3] | MAO-A Inhibition Ex vivo ED50 [4] | IC50 [5, 8] | IC50 [6] | selectivity ratio [7] | LD50 at 6 h [7] | IC50 [5] | Time to return to 50% of peak t ([2]; AChE inhibition)
1 | C#CCNCCc1cccc(OC(=O)N(C)CCC)c1 [Compound 14] | 12500 nM | 30 min | 100 µmol/kg | 0.6 µmol/kg | 4.5 µmol/kg | 1800 nM | 300 nM | – | – | – | –
2 | C#CCN(C)C(C)Cc1cccc(OC(=O)N(C)CC)c1 (stereo not shown) [Compound 21] | 230000 nM | – | – | – | – | 120 nM | 200 nM | – | – | – | –
3 | C#CCN(C)CCc1cccc(OC(=O)N(C)CC)c1 [Compound 15] | 67200 nM | 30 min | 145 µmol/kg | 35 µmol/kg | 35 µmol/kg | – | 1000 nM | 8.6 | 1250 µmol/kg | 1000 nM | –
4 | C#CCN(C)C(C)Cc1cccc(OC(=O)N(C)C)c1 (racemic) [Compound 20, (rac)-3-(N,N-dimethyl-carbamyloxy) -α-methyl-N'-methyl,N'-propargyl phenethylamine HCl] | 1700 nM | – | 15 µmol/kg | 7 µmol/kg | 6 µmol/kg | – | 400 nM | 11.3 | 170 µmol/kg | 120 nM | –
5 | C#CCNCCc1cccc(OC(=O)N(C)CC)c1 [Compound 13] | 30000 nM | 30 to 90 min | 53.8 µmol/kg | 50 µmol/kg | 75 µmol/kg | – | 8300 nM | 8.5 | 458 µmol/kg | 3300 nM | 120 min
